Reference: PubChem BioAssay (NCI)
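Five concentrations, 48 hours, 96-well plates. GI50 = concentration required for 50% inhibition of growth. TGI: concentration producing complete growth inhibition.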

What was measured:
Assay in all cases: inhibition of tumour cell growth, NCI panel, 48 h
SN12C renal = test system: SN12C renal
T-47D breast = test system: T-47D breast
NCI/ADR-RES ovarian = test system: NCI/ADR-RES ovarian
M14 melanoma = test system: M14 melanoma
IGROV1 ovarian = test system: IGROV1 ovarian
SK-MEL-2 melanoma = test system: SK-MEL-2 melanoma
HCC-2998 colon = test system: HCC-2998 colon
NCI-H522 lung = test system: NCI-H522 lung
CCRF-CEM leukemia = test system: CCRF-CEM leukemia
OVCAR-3 ovarian = test system: OVCAR-3 ovarian
PC-3 prostate = test system: PC-3 prostate
A549 NSCLC = test system: A549 NSCLC
HL-60(TB) leukemia = test system: HL-60(TB) leukemia
MALME-3M melanoma = test system: MALME-3M melanoma
DU-145 prostate = test system: DU-145 prostate
SF-268 CNS = test system: SF-268 CNS
MDA-MB-435 = test system: MDA-MB-435
UACC-257 melanoma = test system: UACC-257 melanoma
OVCAR-4 ovarian = test system: OVCAR-4 ovarian
NCI-H23 lung = test system: NCI-H23 lung
RXF 393 renal = test system: RXF 393 renal
NCI-H460 lung = test system: NCI-H460 lung
HT29 colon = test system: HT29 colon
SF-539 CNS = test system: SF-539 CNS
NCI-H226 lung = test system: NCI-H226 lung
SK-MEL-28 melanoma = test system: SK-MEL-28 melanoma
SK-MEL-5 melanoma = test system: SK-MEL-5 melanoma
HCT-116 colon = test system: HCT-116 colon
SNB-19 CNS = test system: SNB-19 CNS
SW-620 colon = test system: SW-620 colon
786-0 renal = test system: 786-0 renal
UACC-62 melanoma = test system: UACC-62 melanoma
A498 renal = test system: A498 renal
KM12 colon = test system: KM12 colon
LOX IMVI melanoma = test system: LOX IMVI melanoma
OVCAR-5 ovarian = test system: OVCAR-5 ovarian
HOP-92 NSCLC = test system: HOP-92 NSCLC
MCF7 breast = test system: MCF7 breast
HS 578T breast = test system: HS 578T breast
SK-OV-3 ovarian = test system: SK-OV-3 ovarian
TK-10 renal = test system: TK-10 renal
MOLT-4 leukemia = test system: MOLT-4 leukemia
OVCAR-8 ovarian = test system: OVCAR-8 ovarian
SR leukemia = test system: SR leukemia
HOP-62 NSCLC = test system: HOP-62 NSCLC
EKVX NSCLC = test system: EKVX NSCLC
SF-295 CNS = test system: SF-295 CNS
SNB-75 CNS = test system: SNB-75 CNS
HCT-15 colon = test system: HCT-15 colon
MDA-MB-231 breast = test system: MDA-MB-231 breast
UO-31 renal = test system: UO-31 renal
ACHN renal = test system: ACHN renal
U251 CNS = test system: U251 CNS
BT-549 breast = test system: BT-549 breast

`CC(C)OC(=O)[C@H](C)NP(=O)(OC[C@H]1O[C@@H](n2ccc(=O)[nH]c2=O)[C@](C)(F)[C@@H]1O)Oc1ccccc1` (stereo partly drawn) showed a GI50 (SN12C renal) greater than 100 µM, a TGI (SN12C renal) greater than 100 µM and a GI50 (T-47D breast) greater than 100 µM. The TGI (T-47D breast) was greater than 100 µM, the GI50 (NCI/ADR-RES ovarian) was greater than 100 µM and the TGI (NCI/ADR-RES ovarian) was greater than 100 µM. The GI50 (M14 melanoma) was greater than 100 µM, the TGI (M14 melanoma) was greater than 100 µM and the GI50 (IGROV1 ovarian) was greater than 100 µM. It also gave a TGI (IGROV1 ovarian) greater than 100 µM, a GI50 (SK-MEL-2 melanoma) greater than 100 µM and a TGI (SK-MEL-2 melanoma) greater than 100 µM. It also gave a GI50 (HCC-2998 colon) greater than 100 µM, a TGI (HCC-2998 colon) greater than 100 µM and a GI50 (NCI-H522 lung) greater than 100 µM. For the same compound, the TGI (NCI-H522 lung) was greater than 100 µM, the GI50 (CCRF-CEM leukemia) was greater than 100 µM and the TGI (CCRF-CEM leukemia) was greater than 100 µM. For the same compound, the GI50 (OVCAR-3 ovarian) was greater than 100 µM, the TGI (OVCAR-3 ovarian) was greater than 100 µM and the GI50 (PC-3 prostate) was greater than 100 µM. It also gave a TGI (PC-3 prostate) greater than 100 µM, a GI50 (A549 NSCLC) greater than 100 µM and a TGI (A549 NSCLC) greater than 100 µM. For the same compound, the GI50 (HL-60(TB) leukemia) was greater than 100 µM, the TGI (HL-60(TB) leukemia) was greater than 100 µM and the GI50 (MALME-3M melanoma) was greater than 100 µM. It also gave a TGI (MALME-3M melanoma) greater than 100 µM, a GI50 (DU-145 prostate) greater than 100 µM and a TGI (DU-145 prostate) greater than 100 µM. For the same compound, the GI50 (SF-268 CNS) was greater than 100 µM, the TGI (SF-268 CNS) was greater than 100 µM and the GI50 (MDA-MB-435) was greater than 100 µM. For the same compound, the TGI (MDA-MB-435) was greater than 100 µM, the GI50 (UACC-257 melanoma) was greater than 100 µM and the TGI (UACC-257 melanoma) was greater than 100 µM. It also gave a GI50 (OVCAR-4 ovarian) greater than 100 µM, a TGI (OVCAR-4 ovarian) greater than 100 µM and a GI50 (NCI-H23 lung) greater than 100 µM. It also gave a TGI (NCI-H23 lung) greater than 100 µM, a GI50 (RXF 393 renal) greater than 100 µM and a TGI (RXF 393 renal) greater than 100 µM. The GI50 (NCI-H460 lung) was greater than 100 µM, the TGI (NCI-H460 lung) was greater than 100 µM and the GI50 (HT29 colon) was greater than 100 µM. For the same compound, the TGI (HT29 colon) was greater than 100 µM, the GI50 (SF-539 CNS) was greater than 100 µM and the TGI (SF-539 CNS) was greater than 100 µM. For the same compound, the GI50 (NCI-H226 lung) was greater than 100 µM, the TGI (NCI-H226 lung) was greater than 100 µM and the GI50 (SK-MEL-28 melanoma) was greater than 100 µM. It also gave a TGI (SK-MEL-28 melanoma) greater than 100 µM, a GI50 (SK-MEL-5 melanoma) greater than 100 µM and a TGI (SK-MEL-5 melanoma) greater than 100 µM. For the same compound, the GI50 (HCT-116 colon) was greater than 100 µM, the TGI (HCT-116 colon) was greater than 100 µM and the GI50 (SNB-19 CNS) was greater than 100 µM. For the same compound, the TGI (SNB-19 CNS) was greater than 100 µM, the GI50 (SW-620 colon) was greater than 100 µM and the TGI (SW-620 colon) was greater than 100 µM. The GI50 (786-0 renal) was greater than 100 µM, the TGI (786-0 renal) was greater than 100 µM and the GI50 (UACC-62 melanoma) was greater than 100 µM. The TGI (UACC-62 melanoma) was greater than 100 µM, the GI50 (A498 renal) was greater than 100 µM and the TGI (A498 renal) was greater than 100 µM. For the same compound, the GI50 (KM12 colon) was greater than 100 µM, the TGI (KM12 colon) was greater than 100 µM and the GI50 (LOX IMVI melanoma) was greater than 100 µM. For the same compound, the TGI (LOX IMVI melanoma) was greater than 100 µM, the GI50 (OVCAR-5 ovarian) was greater than 100 µM and the TGI (OVCAR-5 ovarian) was greater than 100 µM. For the same compound, the GI50 (HOP-92 NSCLC) was greater than 100 µM, the TGI (HOP-92 NSCLC) was greater than 100 µM and the GI50 (MCF7 breast) was greater than 100 µM. The TGI (MCF7 breast) was greater than 100 µM, the GI50 (HS 578T breast) was greater than 100 µM and the TGI (HS 578T breast) was greater than 100 µM. For the same compound, the GI50 (SK-OV-3 ovarian) was greater than 100 µM, the TGI (SK-OV-3 ovarian) was greater than 100 µM and the GI50 (TK-10 renal) was greater than 100 µM. The TGI (TK-10 renal) was greater than 100 µM, the GI50 (MOLT-4 leukemia) was greater than 100 µM and the TGI (MOLT-4 leukemia) was greater than 100 µM. It also gave a GI50 (OVCAR-8 ovarian) greater than 100 µM, a TGI (OVCAR-8 ovarian) greater than 100 µM and a GI50 (SR leukemia) greater than 100 µM. The TGI (SR leukemia) was greater than 100 µM, the GI50 (HOP-62 NSCLC) was greater than 100 µM and the TGI (HOP-62 NSCLC) was greater than 100 µM. It also gave a GI50 (EKVX NSCLC) greater than 100 µM, a TGI (EKVX NSCLC) greater than 100 µM and a GI50 (SF-295 CNS) greater than 100 µM. For the same compound, the TGI (SF-295 CNS) was greater than 100 µM, the GI50 (SNB-75 CNS) was greater than 100 µM and the TGI (SNB-75 CNS) was greater than 100 µM. For the same compound, the GI50 (HCT-15 colon) was greater than 100 µM, the TGI (HCT-15 colon) was greater than 100 µM and the GI50 (MDA-MB-231 breast) was greater than 100 µM. For the same compound, the TGI (MDA-MB-231 breast) was greater than 100 µM, the GI50 (UO-31 renal) was greater than 100 µM and the TGI (UO-31 renal) was greater than 100 µM. The GI50 (ACHN renal) was greater than 100 µM, the TGI (ACHN renal) was greater than 100 µM and the GI50 (U251 CNS) was greater than 100 µM. For the same compound, the TGI (U251 CNS) was greater than 100 µM, the GI50 (BT-549 breast) was greater than 100 µM and the TGI (BT-549 breast) was greater than 100 µM.
